Data: patent US9969742B2, “Imidazotriazinone compounds” (Ironwood Pharmaceuticals, Inc., priority 2012, dated 2018)
Where two headings read alike, the source gives them in different places.

Assays:
Format in all cases: biochemical
[1] = biological target: T1, PDE1B (Homo sapiens, UniProt Q01064); assay: Phosphodiesterase enzyme screening assay, PDE1B; details: Table 1; ratio of IC50 values; value greater than 1 indicates greater selectivity for PDE9A2
T1 construct: purchased Reaction Biology Corporation, Malvern, Pa
Source text: (§1) Compounds of the invention were screened against PDE1A, PDE1B, PDE2A, PDE3A, PDE3B, PDE4A1A, PDE4B1, PDE4D3, PDE5A1, PDE6C, PDE7A, PDE8A1, PDE9A2, PDE10A2 AND PDE11A isoforms of the phosphodiesterase enzyme to determine activity and overall selectivity through comparative analysis. […] Where 8-methoxy-IBMX and Zaprinast were used as reference inhibitors.
(§2) The phosphodiesterase enzyme isoforms were obtained from a commercial retailer (Reaction Biology Corporation, Malvern, Pa.) for use in the instant screening assay.
(§3) The analysis was completed using the Caliper LabChip 3000 and a 12-sipper LabChip. LabChip assays are separations-based, meaning that the product and substrate are electrophoretically separated, thereby minimizing interferences and yielding the highest data quality available on any screening platform. […] High Z′ values, few false positives, few false negatives and analytical quality reproducibility are the reasons cited for the increasing reliance on the LabChip assays.
(§4) The off-chip incubation mobility-shift phosphodiesterase assay uses a microfluidic chip to measure the conversion of a fluorescent cyclic AMP substrate to a 5′-AMP product, or a cyclic GMP substrate to a 5′-GMP product. The reaction mixture, from a microtiter plate well, is introduced through a capillary sipper onto the chip, where the fluorescent substrate and product are separated by electrophoresis and detected via laser-induced fluorescence. […] The precision of microfluidics allows researchers to detect subtle interactions between drug candidates and therapeutic targets.
(§5) Reactions were carried out in 100 mM HEPES (pH 7.5), 5 mM MgCl2, 1 mM DTT, 0.003% Brij, 4.0 μM cGMP substrate. The reaction was started by addition of cGMP or cAMP and incubated for 1 hour at R.T. The reaction was terminated by the addition of stop buffer containing 100 mM HEPES (pH 7.5), 15 mM EDTA, 0.015% Brij-35, 5% DMSO. Cyclic AMP/GMP substrate and 5′-AMP/5′-GMP product were separated by charge using electrophoretic mobility shift. Product formed was compared to control wells to determine inhibition or enhancement of enzyme activity.
(§6) Data points were averages of quadruplicate wells and error bars represented the SEM for each point.

[2] = biological target: T2, PDE1A (Homo sapiens, UniProt P54750); assay: Phosphodiesterase enzyme screening assay, PDE1A; details: Table 1; ratio of IC50 values; value greater than 1 indicates greater selectivity for PDE9A2
T2 construct: purchased Reaction Biology Corporation, Malvern, Pa
Source text: as §1, §2, §3, §4, §5, §6

[3] = biological target: T3, PDE9A2 (Homo sapiens, UniProt O76083); assay: Phosphodiesterase enzyme screening assay, PDE9A2; details: 4.0 μM cGMP substrate, 1 hour at R.T., read-out: Band (PDE9A2 IC50)
T3 construct: purchased Reaction Biology Corporation, Malvern, Pa
How it was run: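 Enzyme activity is measured as conversion of fluorescent cGMP (4.0 μM) to 5′-GMP after 1 h at R.T. in pH 7.5 HEPES/MgCl2/DTT buffer. Product is separated from substrate by microfluidic mobility shift, and inhibition is derived by comparison with control wells.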

T3 sequence (O76083 1-533 isoform O76083-2): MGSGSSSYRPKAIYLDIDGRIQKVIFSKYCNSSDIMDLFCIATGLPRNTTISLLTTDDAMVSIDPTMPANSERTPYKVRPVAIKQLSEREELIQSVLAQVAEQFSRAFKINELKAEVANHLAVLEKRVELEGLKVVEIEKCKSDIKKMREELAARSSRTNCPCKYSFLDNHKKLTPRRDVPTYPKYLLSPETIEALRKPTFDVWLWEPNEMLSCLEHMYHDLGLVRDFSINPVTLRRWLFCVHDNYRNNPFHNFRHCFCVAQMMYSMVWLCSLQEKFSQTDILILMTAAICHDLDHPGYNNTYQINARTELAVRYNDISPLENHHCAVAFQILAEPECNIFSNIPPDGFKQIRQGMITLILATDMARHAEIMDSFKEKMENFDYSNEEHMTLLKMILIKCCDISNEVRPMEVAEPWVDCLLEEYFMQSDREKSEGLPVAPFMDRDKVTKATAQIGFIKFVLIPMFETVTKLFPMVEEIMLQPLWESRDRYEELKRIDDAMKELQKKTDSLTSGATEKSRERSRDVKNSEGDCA
T2 sequence (P54750 whole entry): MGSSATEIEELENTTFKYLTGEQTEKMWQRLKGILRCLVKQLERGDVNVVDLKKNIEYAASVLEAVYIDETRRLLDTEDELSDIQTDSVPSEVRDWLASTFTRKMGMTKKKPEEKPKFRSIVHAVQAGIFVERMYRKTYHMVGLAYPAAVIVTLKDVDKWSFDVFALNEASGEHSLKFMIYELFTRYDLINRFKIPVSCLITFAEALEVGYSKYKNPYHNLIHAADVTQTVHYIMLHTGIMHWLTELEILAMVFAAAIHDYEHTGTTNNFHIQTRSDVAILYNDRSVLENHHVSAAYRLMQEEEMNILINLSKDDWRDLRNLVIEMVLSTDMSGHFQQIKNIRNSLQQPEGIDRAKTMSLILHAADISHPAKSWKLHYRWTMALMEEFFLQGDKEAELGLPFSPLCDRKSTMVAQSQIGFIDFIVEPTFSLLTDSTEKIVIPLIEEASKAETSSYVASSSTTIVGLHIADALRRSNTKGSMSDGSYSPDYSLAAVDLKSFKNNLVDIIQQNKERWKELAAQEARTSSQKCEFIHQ
T1 sequence (Q01064 whole entry): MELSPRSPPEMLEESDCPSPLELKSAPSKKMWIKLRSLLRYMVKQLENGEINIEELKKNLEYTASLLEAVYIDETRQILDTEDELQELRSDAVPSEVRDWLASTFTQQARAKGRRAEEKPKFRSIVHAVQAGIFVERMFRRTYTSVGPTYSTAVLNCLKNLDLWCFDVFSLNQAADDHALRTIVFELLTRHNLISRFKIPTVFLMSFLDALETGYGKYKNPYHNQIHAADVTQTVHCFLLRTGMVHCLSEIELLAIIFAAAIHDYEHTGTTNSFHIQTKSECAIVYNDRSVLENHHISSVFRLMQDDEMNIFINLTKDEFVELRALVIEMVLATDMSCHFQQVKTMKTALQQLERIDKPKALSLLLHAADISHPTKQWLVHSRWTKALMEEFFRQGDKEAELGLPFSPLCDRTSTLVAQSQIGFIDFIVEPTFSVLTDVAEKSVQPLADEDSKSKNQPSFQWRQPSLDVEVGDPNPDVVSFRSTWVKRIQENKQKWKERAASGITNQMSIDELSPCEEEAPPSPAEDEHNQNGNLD

Molecule	IC50 ([3]; Table 1, 10 concentrations) [nM]	also measured
CC1CN(Cc2ccccc2)CC1c1nn2c(C3CCCOC3)ncc2c(=O)[nH]1 (single isomer, unassigned) [2-((3,4-trans)-1-benzyl-4-methylpyrrolidin-3-yl)-7-(tetrahydro-2H-pyran-3-yl)imidazo[5,1-f][1,2,4]triazin-4(3H)-one]	–	PDE1B selectivity (versus PDE9A2) [1]: 38; PDE1A selectivity (versus PDE9A2) [2]: 28
Cc1cc(F)ccc1-c1ncc2c(=O)[nH]c(C3CN(Cc4ccccc4)CC3C)nn12 (single isomer, unassigned; (+)) [(+)-2-((3,4-trans)-1-benzyl-4-methylpyrrolidin-3-yl)-7-(4-fluoro-2-methylphenyl)imidazo[5,1-f][1,2,4]triazin-4(3H)-one]	–	PDE1B selectivity (versus PDE9A2) [1]: 225; PDE1A selectivity (versus PDE9A2) [2]: 257
Cc1ccc(Cl)cc1-c1ncc2c(=O)[nH]c(C3CN(Cc4ccccc4)CC3C)nn12 (single isomer, unassigned; (+)) [(+)-2-((3,4-trans)-1-benzyl-4-methylpyrrolidin-3-yl)-7-(5-chloro-2-methylphenyl)imidazo[5,1-f][1,2,4]triazin-4(3H)-one]	–	PDE1B selectivity (versus PDE9A2) [1]: 142; PDE1A selectivity (versus PDE9A2) [2]: 276
Cc1ccc(F)cc1-c1ncc2c(=O)[nH]c(C3CN(Cc4ccccc4)CC3C)nn12 (single isomer, unassigned; (+)) [(+)-2-((3,4-trans)-1-benzyl-4-methylpyrrolidin-3-yl)-7-(5-fl] [(+)-2-((3,4-trans)-1-benzyl-4-methylpyrrolidin-3-yl)-7-(5-fluoro-2-methylphenyl)imidazo[1,5-f][1,2,4]triazin-4(3H)-one]	–	PDE1B selectivity (versus PDE9A2) [1]: 109; PDE1A selectivity (versus PDE9A2) [2]: 247
CC1CN(Cc2ccccc2)CC1c1nn2c(C3CCOCC3)ncc2c(=O)[nH]1 (single isomer, unassigned; (+)) [(+)-2-((3,4-trans)-1-benzyl-4-methylpyrrolidin-3-yl)-7-(tetr] [(+)-2-((3,4-trans)-1-benzyl-4-methylpyrrolidin-3-yl)-7-(tetrahydro-2H-pyran-4-yl)imidazo[1,5-f][1,2,4]triazin-4(3H)-one]	–	PDE1B selectivity (versus PDE9A2) [1]: 5; PDE1A selectivity (versus PDE9A2) [2]: 5
CC1CN(C(C)c2ccccc2)CC1c1nn2c(C3CCOCC3)ncc2c(=O)[nH]1 (single isomer, unassigned; (+)) [(+)-2-((3,4-trans)-4-methyl-1-((S)-1-phenylethyl)pyrrolidin-]	–	PDE1B selectivity (versus PDE9A2) [1]: 99; PDE1A selectivity (versus PDE9A2) [2]: 51
CC1CN(C(=O)c2ccccc2C#N)CC1c1nn2c(C3CCOCC3)ncc2c(=O)[nH]1 (single isomer, unassigned; (-)) [(−)-2-((3,4-trans)-3-methyl-4-(4-oxo-7-(tetrahydro-2H-pyran-4-yl)-3,4-dihydroimidazo[5,1-f][1,2,4]triazin-2-yl)pyrrolidine-1-carbonyl)benzonitrile]	< 1000	–
CC1CN(S(=O)(=O)c2ccccc2)CC1c1nn2c(C3CCOCC3)ncc2c(=O)[nH]1 (single isomer, unassigned; (-)) [(−)-2-((3,4-trans)-4-methyl-1-(phenylsulfonyl)pyrrolidin-3-yl)-7-(tetrahydro-2H-pyran-4-yl)imidazo[5,1-f][1,2,4]triazin-4(3H)-one]	1000 to 10000	–
CC1CN(C(=O)c2cnccn2)CC1c1nn2c(C3CCOCC3)ncc2c(=O)[nH]1 (single isomer, unassigned; (-)) [(−)-2-((3,4-trans)-4-methyl-1-(pyrazine-2-carbonyl)pyrrolidin-3-yl)-7-(tetrahydro-2H-pyran-4-yl)imidazo[5,1-f][1,2,4]triazin-4(3H)-one]	< 1000	–
CC1CN(Cc2ccccn2)CC1c1nn2c(C3CCOCC3)ncc2c(=O)[nH]1 (single isomer, unassigned; (-)) [(−)-2-((3,4-trans)-4-methyl-1-(pyridin-2-ylmethyl)pyrrolidin-3-yl)-7-(tetrahydro-2H-pyran-4-yl)imidazo[5,1-f][1,2,4]triazin-4(3H)-one]	< 1000	–
CC1CN(C(=O)c2ncccn2)CC1c1nn2c(C3CCOCC3)ncc2c(=O)[nH]1 (single isomer, unassigned; (-)) [(−)-2-((3,4-trans)-4-methyl-1-(pyrimidine-2-carbonyl)pyrrolidin-3-yl)-7-(tetrahydro-2H-pyran-4-yl)imidazo[5,1-f][1,2,4]triazin-4(3H)-one]	< 1000	–
CC1CN(C(=O)c2ccncn2)CC1c1nn2c(C3CCOCC3)ncc2c(=O)[nH]1 (single isomer, unassigned; (-)) [(−)-2-((3,4-trans)-4-methyl-1-(pyrimidine-4-carbonyl)pyrrolidin-3-yl)-7-(tetrahydro-2H-pyran-4-yl)imidazo[5,1-f][1,2,4]triazin-4(3H)-one]	< 1000	–
CC1CN(C(=O)c2cncnc2)CC1c1nn2c(C3CCOCC3)ncc2c(=O)[nH]1 (single isomer, unassigned; (-)) [(−)-2-((3,4-trans)-4-methyl-1-(pyrimidine-5-carbonyl)pyrrolidin-3-yl)-7-(tetrahydro-2H-pyran-4-yl)imidazo[5,1-f][1,2,4]triazin-4(3H)-one]	< 1000	–
CC1CN(C(=O)c2ccccn2)CC1c1nn2c(C3CCOCC3)ncc2c(=O)[nH]1 (single isomer, unassigned; (-)) [(−)-2-((3,4-trans)-4-methyl-1-picolinoylpyrrolidin-3-yl)-7-(tetrahydro-2H-pyran-4-yl)imidazo[5,1-f][1,2,4]triazin-4(3H)-one]	< 1000	–
CC1CN(Cc2ccccc2C#N)CC1c1nn2c(C3CCOCC3)ncc2c(=O)[nH]1 (single isomer, unassigned; (-)) [(−)-2-(((3,4-trans)-3-methyl-4-(4-oxo-7-(tetrahydro-2H-pyran-4-yl)-3,4-dihydroimidazo[5,1-f][1,2,4]triazin-2-yl)pyrrolidin-1-yl)methyl)benzonitrile]	< 1000	–
CC1CN(S(=O)(=O)c2ccccc2C#N)CC1c1nn2c(C3CCOCC3)ncc2c(=O)[nH]1 (single isomer, unassigned; (-)) [(−)-2-(((3,4-trans)-3-methyl-4-(4-oxo-7-(tetrahydro-2H-pyran-4-yl)-3,4-dihydroimidazo[5,1-f][1,2,4]triazin-2-yl)pyrrolidin-1-yl)sulfonyl)benzonitrile]	< 1000	–
CC1CN(Cc2cccc(C#N)c2)CC1c1nn2c(C3CCOCC3)ncc2c(=O)[nH]1 (single isomer, unassigned; (-)) [(−)-3-(((3,4-trans)-3-methyl-4-(4-oxo-7-(tetrahydro-2H-pyran-4-yl)-3,4-dihydroimidazo[5,1-f][1,2,4]triazin-2-yl)pyrrolidin-1-yl)methyl)benzonitrile]	< 1000	–
Cc1ccc(F)cc1-c1ncc2c(=O)[nH]c(C3CN(Cc4ncccn4)CC3C)nn12 (single isomer, unassigned; (-)) [(−)-7-(5-fluoro-2-methylphenyl)-2-((3,4-trans)-4-methyl-1-(pyrimidin-2-ylmethyl)pyrrolidin-3-yl)imidazo[1,5-f][1,2,4]triazin-4(3H)-one]	1000 to 10000	–
CC1CN(Cc2ccccc2)CC1c1nn2c(C3CCN(C(=O)OC(C)(C)C)CC3)ncc2c(=O)[nH]1 (single isomer, unassigned; (-)) [(−)-tert-butyl 4-(2-((3,4-trans)-1-benzyl-4-methylpyrrolidin-3-yl)-4-oxo-3,4-dihydroimidazo[1,5-f][1,2,4]triazin-7-yl)piperidine-1-carboxylate]	> 10000	–
CC1CN(Cc2nc3ccccn3n2)CC1c1nn2c(CC(F)(F)F)ncc2c(=O)[nH]1 (stereo not drawn) [2-((3,4-trans)-1-([1,2,4]triazolo[1,5-a]pyridin-2-ylmethyl)-4-methylpyrrolidin-3-yl)-7-(2,2,2-trifluoroethyl)imidazo[5,1-f][1,2,4]triazin-4(3H)-one]	–	IC50 [3]: < 1000 nM
(+)-2-((3,4-trans)-1-benzyl-4-methylpyrrolidin-3-yl)-7-(piperidin-4-yl)imidazo[1,5-f][1,2,4]triazin-4(3H)-one	1000 to 10000	–
(−)-2-((3,4-trans)-1-benzyl-4-methylpyrrolidin-3-yl)-7-(piperidin-4-yl)imidazo[1,5-f][1,2,4]triazin-4(3H)-one	> 10000	–
